{
  "source": "paper PMC5218480",
  "about": "(PLoS ONE, 2017)",
  "tested_on": "MV-4-11 cells",
  "assay": "Gene expression microarray analysis (Affymetrix PrimeView) and GSEA",
  "assay_type": "cell-based, human",
  "set-up": "RFU PODN (11730768_x_at) / Fold change /veh PODN (11730768_x_at) / RFU LINC00158 (11744669_a_at) / Fold change /veh LINC00158 (11744669_a_at) / RFU DUSP10 (11751237_a_at) / Fold change /veh DUSP10 (11751237_a_at) / RFU ID3 (11757404_x_at) / Fold change /veh ID3 (11757404_x_at) / RFU PLEKHG5 (11737974_s_at) / Fold change /veh PLEKHG5 (11737974_s_at) / RFU LRRC4B (11730491_at) / Fold change /veh LRRC4B (11730491_at) / RFU GIMAP4 (11747438_a_at) / Fold change /veh GIMAP4 (11747438_a_at) / RFU KRT8 (11758183_x_at) / Fold change /veh KRT8 (11758183_x_at) / RFU CNN1 (11734310_a_at) / Fold change /veh CNN1 (11734310_a_at) / RFU VPS37D (11726825_at) / Fold change /veh VPS37D (11726825_at) / RFU C10orf10 (11716522_x_at) / Fold change /veh C10orf10 (11716522_x_at) / RFU KIR2DL2 /// KIR2DL4 /// KIR2DL5A /// KIR2DL5B /// KIR2DS1 /// KIR2DS2 /// KIR2DS3 /// KIR2DS4 /// KIR3DL3 /// KIR3DL3 /// KIR3DS1 (11738374_at) / Fold change /veh KIR2DL2 /// KIR2DL4 /// KIR2DL5A /// KIR2DL5B /// KIR2DS1 /// KIR2DS2 /// KIR2DS3 /// KIR2DS4 /// KIR3DL3 /// KIR3DL3 /// KIR3DS1 (11738374_at) / RFU C1QL1 (11718748_at) / Fold change /veh C1QL1 (11718748_at) / RFU TMPRSS4 (11747572_a_at) / Fold change /veh TMPRSS4 (11747572_a_at) / RFU HAMP (11756126_x_at) / Fold change /veh HAMP (11756126_x_at) / RFU RNFT2 (11725882_a_at) / Fold change /veh RNFT2 (11725882_a_at) / RFU NR4A2 (11747474_a_at) / Fold change /veh NR4A2 (11747474_a_at) / RFU ABCC12 (11746883_a_at) / Fold change /veh ABCC12 (11746883_a_at) / RFU TMEM136 (11760407_x_at) / Fold change /veh TMEM136 (11760407_x_at) / RFU CLDN22 /// WWC2 (11732394_at) / Fold change /veh CLDN22 /// WWC2 (11732394_at) / RFU HLA-DPB1 (11760878_x_at) / Fold change /veh HLA-DPB1 (11760878_x_at) / RFU SPINT1 (11716480_a_at) / Fold change /veh SPINT1 (11716480_a_at) / RFU GAP43 (11754022_s_at) / Fold change /veh GAP43 (11754022_s_at) / RFU A4GNT (11735810_at) / Fold change /veh A4GNT (11735810_at) / RFU PRB3 (11715151_x_at) / Fold change /veh PRB3 (11715151_x_at) / RFU TUBB4B (11761932_at) / Fold change /veh TUBB4B (11761932_at) / RFU CAPN14 (11732068_a_at) / Fold change /veh CAPN14 (11732068_a_at) / RFU TMCC2 (11721928_a_at) / Fold change /veh TMCC2 (11721928_a_at) / RFU IRGQ (11745062_a_at) / Fold change /veh IRGQ (11745062_a_at) / RFU FAM174B (11720279_a_at) / Fold change /veh FAM174B (11720279_a_at) / RFU TMPRSS4 (11748680_a_at) / Fold change /veh TMPRSS4 (11748680_a_at) / RFU FAM212B (11763350_a_at) / Fold change /veh FAM212B (11763350_a_at) / RFU PLEKHG5 (11743358_a_at) / Fold change /veh PLEKHG5 (11743358_a_at) / RFU ZSCAN30 (11745921_a_at) / Fold change /veh ZSCAN30 (11745921_a_at) / RFU CMKLR1 (11741424_a_at) / Fold change /veh CMKLR1 (11741424_a_at) / RFU LOC101060620 /// MAPK8IP1 (11723275_at) / Fold change /veh LOC101060620 /// MAPK8IP1 (11723275_at) / RFU SPTSSB (11747773_x_at) / Fold change /veh SPTSSB (11747773_x_at) / RFU PRSS12 (11739890_at) / Fold change /veh PRSS12 (11739890_at) / RFU BIN1 (11741810_x_at) / Fold change /veh BIN1 (11741810_x_at) / RFU WNT11 (11732464_a_at) / Fold change /veh WNT11 (11732464_a_at) / RFU C10orf10 (11716521_a_at) / Fold change /veh C10orf10 (11716521_a_at) / RFU C5orf56 (11738089_at) / Fold change /veh C5orf56 (11738089_at) / RFU CYB561 (11721691_x_at) / Fold change /veh CYB561 (11721691_x_at) / RFU ANKRD19P (11752326_a_at) / Fold change /veh ANKRD19P (11752326_a_at) / RFU OR2T12 /// OR2T33 /// OR2T8 (11738714_s_at) / Fold change /veh OR2T12 /// OR2T33 /// OR2T8 (11738714_s_at) / RFU VCAN (11748164_a_at) / Fold change /veh VCAN (11748164_a_at) / RFU JSRP1 (11732532_at) / Fold change /veh JSRP1 (11732532_at) / RFU KRTAP10-11 (11738290_x_at) / Fold change /veh KRTAP10-11 (11738290_x_at) / RFU MYO3A (11730013_a_at) / Fold change /veh MYO3A (11730013_a_at) / RFU EBF3 (11725865_a_at) / Fold change /veh EBF3 (11725865_a_at) / RFU CAMK2N1 (11719241_x_at) / Fold change /veh CAMK2N1 (11719241_x_at) / RFU C5orf56 (11738088_a_at) / Fold change /veh C5orf56 (11738088_a_at) / RFU OLFML3 (11715873_a_at) / Fold change /veh OLFML3 (11715873_a_at) / RFU LOC100653217 /// NTM (11731650_a_at) / Fold change /veh LOC100653217 /// NTM (11731650_a_at) / RFU MAPK11 (11762145_a_at) / Fold change /veh MAPK11 (11762145_a_at) / RFU FIZ1 (11724087_x_at) / Fold change /veh FIZ1 (11724087_x_at) / RFU OASL (11726364_x_at) / Fold change /veh OASL (11726364_x_at) / RFU SOX15 (11748057_x_at) / Fold change /veh SOX15 (11748057_x_at) / RFU CD79A (11719716_a_at) / Fold change /veh CD79A (11719716_a_at) / RFU HIST1H1D (11736915_at) / Fold change /veh HIST1H1D (11736915_at) / RFU CASKIN2 (11723855_a_at) / Fold change /veh CASKIN2 (11723855_a_at) / RFU LOC730098 (11760151_x_at) / Fold change /veh LOC730098 (11760151_x_at) / RFU OR4N2 (11742367_at) / Fold change /veh OR4N2 (11742367_at) / RFU PRRT2 (11749266_a_at) / Fold change /veh PRRT2 (11749266_a_at) / RFU SNX32 (11753110_a_at) / Fold change /veh SNX32 (11753110_a_at) / RFU CDHR5 (11726645_a_at) / Fold change /veh CDHR5 (11726645_a_at) / RFU RCAN1 (11760418_a_at) / Fold change /veh RCAN1 (11760418_a_at) / RFU FAM167A (11723789_a_at) / Fold change /veh FAM167A (11723789_a_at) / RFU FAM26E (11764081_at) / Fold change /veh FAM26E (11764081_at) / RFU ISYNA1 (11749810_s_at) / Fold change /veh ISYNA1 (11749810_s_at) / RFU ACY1 (11761880_at) / Fold change /veh ACY1 (11761880_at) / RFU 11764098_at / Fold change /veh 11764098_at / RFU SAMD14 (11745864_x_at) / Fold change /veh SAMD14 (11745864_x_at) / RFU NPB (11741838_a_at) / Fold change /veh NPB (11741838_a_at) / RFU TMPRSS6 (11731388_a_at) / Fold change /veh TMPRSS6 (11731388_a_at) / RFU KRTAP10-2 (11738614_at) / Fold change /veh KRTAP10-2 (11738614_at) / RFU ARHGAP8 /// PRR5-ARHGAP8 (11727945_x_at) / Fold change /veh ARHGAP8 /// PRR5-ARHGAP8 (11727945_x_at) / RFU KRTAP5-7 /// NADSYN1 (11734609_at) / Fold change /veh KRTAP5-7 /// NADSYN1 (11734609_at) / RFU RASL12 (11751679_a_at) / Fold change /veh RASL12 (11751679_a_at) / RFU CDKN2B (11736163_a_at) / Fold change /veh CDKN2B (11736163_a_at) / RFU PRF1 (11729649_at) / Fold change /veh PRF1 (11729649_at) / RFU, ZNF638 /// ZNF638-IT1 / Fold change vs veh, ZNF638 /// ZNF638-IT1 / RFU, PANK3 / Fold change vs veh, PANK3 / RFU, SH3YL1 / Fold change vs veh, SH3YL1 / RFU, ZEB2 / Fold change vs veh, ZEB2 / RFU, NRIP1 / Fold change vs veh, NRIP1 / RFU, PTTG1IP / Fold change vs veh, PTTG1IP / RFU, CAPN2 / Fold change vs veh, CAPN2 / RFU, MED14 / Fold change vs veh, MED14 / RFU, SNORA58 / Fold change vs veh, SNORA58 / RFU, C1orf63 / Fold change vs veh, C1orf63 / RFU, LRRFIP1 / Fold change vs veh, LRRFIP1 / RFU, NDUFAF7 / Fold change vs veh, NDUFAF7 / RFU, SLC12A2 / Fold change vs veh, SLC12A2 / RFU, IBTK / Fold change vs veh, IBTK / RFU, ESF1 / Fold change vs veh, ESF1 / Fold change vs veh, TMEM50B / RFU, TAOK1 / Fold change vs veh, TAOK1 / RFU, ACBD3 / Fold change vs veh, ACBD3 / RFU, TMA16 / Fold change vs veh, TMA16 / RFU, RWDD3 / Fold change vs veh, RWDD3 / RFU, BCAT1 / Fold change vs veh, BCAT1 / RFU, EDEM3 / Fold change vs veh, EDEM3 / RFU, TMEM33 / Fold change vs veh, TMEM33 / RFU, WDR75 / Fold change vs veh, WDR75 / RFU, AHCTF1 / Fold change vs veh, AHCTF1 / RFU, TFRC / Fold change vs veh, TFRC / RFU, ZDHHC17 / Fold change vs veh, ZDHHC17 / RFU, NOM1 / Fold change vs veh, NOM1 / RFU, ARL8B / Fold change vs veh, ARL8B / RFU, ZBTB11 / Fold change vs veh, ZBTB11 / RFU, TAMM41 / Fold change vs veh, TAMM41 / RFU, KIAA1704 /// LOC100996395 / Fold change vs veh, KIAA1704 /// LOC100996395 / RFU, ING1 / Fold change vs veh, ING1 / RFU, TRMT61B / Fold change vs veh, TRMT61B / RFU, FUBP3 / Fold change vs veh, FUBP3 / RFU, TP53 / Fold change vs veh, TP53 / RFU, TNKS2 / Fold change vs veh, TNKS2 / RFU, ZFP14 / Fold change vs veh, ZFP14 / RFU, ACTR2 / Fold change vs veh, ACTR2 / RFU, PPP3R1 / Fold change vs veh, PPP3R1 / RFU, PIK3R1 / Fold change vs veh, PIK3R1 / RFU, HNRNPA1 / Fold change vs veh, HNRNPA1 / RFU, RNF170 / Fold change vs veh, RNF170 / RFU, ZNF28 / Fold change vs veh, ZNF28 / RFU, RNGTT / Fold change vs veh, RNGTT / RFU, OGT / Fold change vs veh, OGT / RFU, BRD1 / Fold change vs veh, BRD1 / RFU, MARS / Fold change vs veh, MARS / RFU, ZNF655 / Fold change vs veh, ZNF655 / RFU, FAHD1 / Fold change vs veh, FAHD1 / RFU, BDP1 / Fold change vs veh, BDP1 / RFU, LRRCC1 / Fold change vs veh, LRRCC1 / RFU, ARID1A / Fold change vs veh, ARID1A / RFU, ZNF146 / Fold change vs veh, ZNF146 / RFU, ZNF330 / Fold change vs veh, ZNF330 / RFU, GPN3 / Fold change vs veh, GPN3 / RFU, C9orf123 / Fold change vs veh, C9orf123 / RFU, N4BP2L2 / Fold change vs veh, N4BP2L2 / RFU, ARFIP1 / Fold change vs veh, ARFIP1 / RFU, FAM179B / Fold change vs veh, FAM179B / RFU, BCL10 / Fold change vs veh, BCL10 / RFU, UHRF1BP1L / Fold change vs veh, UHRF1BP1L / RFU, BET1 / Fold change vs veh, BET1 / RFU, CNOT2 / Fold change vs veh, CNOT2 / RFU, ZNF268 / Fold change vs veh, ZNF268 / Fold change vs veh, ZNF507 / RFU, DGCR2 / Fold change vs veh, DGCR2 / RFU, WDSUB1 / Fold change vs veh, WDSUB1 / Fold change vs veh, HSP90B1 /// MIR3652 / RFU, ADSS / Fold change vs veh, ADSS / RFU, GK / Fold change vs veh, GK / RFU, ZNF148 / Fold change vs veh, ZNF148 / RFU, TAF9 / Fold change vs veh, TAF9 / RFU, SLC1A5 / Fold change vs veh, SLC1A5 / RFU, SLMO2 / Fold change vs veh, SLMO2 / RFU, ABCC4 / Fold change vs veh, ABCC4 / RFU, LOC101060439 /// RAP1B / Fold change vs veh, LOC101060439 /// RAP1B / RFU, RFX7 / Fold change vs veh, RFX7 / RFU, GTPBP10 / Fold change vs veh, GTPBP10 / RFU, CNEP1R1 / Fold change vs veh, CNEP1R1 / RFU, BIVM-ERCC5 /// ERCC5 / Fold change vs veh, BIVM-ERCC5 /// ERCC5 / RFU, ILF3 / Fold change vs veh, ILF3 / RFU 11762660_at / Fold change /veh 11762660_at / RFU VCAN (11757783_s_at) / Fold change /veh VCAN (11757783_s_at) / RFU DDX43 (11728927_at) / Fold change /veh DDX43 (11728927_at) / RFU KRT8 (11758188_x_at) / Fold change /veh KRT8 (11758188_x_at) / RFU NKD1 (11759106_at) / Fold change /veh NKD1 (11759106_at) / RFU SRD5A1 (11742802_a_at) / Fold change /veh SRD5A1 (11742802_a_at) / RFU TPSAB1 /// TPSB2 (11721975_s_at) / Fold change /veh TPSAB1 /// TPSB2 (11721975_s_at) / RFU GSTM3 (11746129_a_at) / Fold change /veh GSTM3 (11746129_a_at) / RFU IL23R (11737362_x_at) / Fold change /veh IL23R (11737362_x_at) / RFU TMEM51 (11727254_a_at) / Fold change /veh TMEM51 (11727254_a_at) / RFU PIWIL2 (11732686_x_at) / Fold change /veh PIWIL2 (11732686_x_at) / RFU ORM1 (11744905_x_at) / Fold change /veh ORM1 (11744905_x_at) / RFU CCDC152 (11743942_at) / Fold change /veh CCDC152 (11743942_at) / RFU ECM1 (11717891_a_at) / Fold change /veh ECM1 (11717891_a_at) / RFU IL23R (11748794_a_at) / Fold change /veh IL23R (11748794_a_at) / RFU TNFAIP8L3 (11732012_x_at) / Fold change /veh TNFAIP8L3 (11732012_x_at) / RFU MBOAT4 (11741988_at) / Fold change /veh MBOAT4 (11741988_at) / RFU 11764193_at / Fold change /veh 11764193_at / RFU TMEM53 (11763286_at) / Fold change /veh TMEM53 (11763286_at) / RFU MAGEB2 (11727129_at) / Fold change /veh MAGEB2 (11727129_at) / RFU TMEM200A (11744735_a_at) / Fold change /veh TMEM200A (11744735_a_at) / RFU CCDC152 (11751479_a_at) / Fold change /veh CCDC152 (11751479_a_at) / RFU FAM211A (11726209_a_at) / Fold change /veh FAM211A (11726209_a_at) / RFU RGS16 (11746705_a_at) / Fold change /veh RGS16 (11746705_a_at) / RFU VCAN (11755009_s_at) / Fold change /veh VCAN (11755009_s_at) / RFU RHOB (11743442_s_at) / Fold change /veh RHOB (11743442_s_at) / RFU RGS16 (11720943_a_at) / Fold change /veh RGS16 (11720943_a_at) / RFU RGS16 (11720944_at) / Fold change /veh RGS16 (11720944_at) / RFU, VPS4B / Fold change vs veh, VPS4B / RFU, CREB1 / Fold change vs veh, CREB1 / RFU, DNAJC13 / Fold change vs veh, DNAJC13 / RFU, GNAQ / Fold change vs veh, GNAQ / RFU, CDK5R1 / Fold change vs veh, CDK5R1 / RFU, ZRANB3 / Fold change vs veh, ZRANB3 / RFU, CUL4A / Fold change vs veh, CUL4A / RFU, CCNY / Fold change vs veh, CCNY / RFU, UFL1 / Fold change vs veh, UFL1 / RFU, COG3 / Fold change vs veh, COG3 / RFU, DIAPH2 / Fold change vs veh, DIAPH2 / RFU, SKA2 / Fold change vs veh, SKA2 / RFU, AFF3 / Fold change vs veh, AFF3 / RFU, LMF1 / Fold change vs veh, LMF1 / RFU, IPO11 / Fold change vs veh, IPO11 / RFU, DFFB / Fold change vs veh, DFFB / RFU, FOXP1 / Fold change vs veh, FOXP1 / RFU, CARD8 / Fold change vs veh, CARD8 / RFU, STRN3 / Fold change vs veh, STRN3 / RFU, ADK / Fold change vs veh, ADK / RFU, RASSF2 / Fold change vs veh, RASSF2 / RFU, WIPF1 / Fold change vs veh, WIPF1 / RFU, LARP1B / Fold change vs veh, LARP1B / RFU, RASA1 / Fold change vs veh, RASA1 / RFU, RB1 / Fold change vs veh, RB1 / RFU, PPFIA1 / Fold change vs veh, PPFIA1 / RFU, MAT2A / Fold change vs veh, MAT2A / RFU, CCT5 / Fold change vs veh, CCT5 / RFU, WDR92 / Fold change vs veh, WDR92 / RFU, CUX1 / Fold change vs veh, CUX1 / RFU, TTC7A / Fold change vs veh, TTC7A / RFU, TMEM135 / Fold change vs veh, TMEM135 / RFU, DEPTOR / Fold change vs veh, DEPTOR / RFU, CPM / Fold change vs veh, CPM / RFU, DNAJB6 / Fold change vs veh, DNAJB6 / RFU, CACNA2D3 / Fold change vs veh, CACNA2D3 / RFU, DTX4 / Fold change vs veh, DTX4 / RFU, TFCP2 / Fold change vs veh, TFCP2 / RFU, GMCL1 /// GMCL1P1 / Fold change vs veh, GMCL1 /// GMCL1P1 / RFU, AEBP2 / Fold change vs veh, AEBP2 / RFU, SNHG1 /// SNORD22 /// SNORD25 /// SNORD26 /// SNORD27 /// SNORD28 /// SNORD29 /// SNORD31 / Fold change vs veh, SNHG1 /// SNORD22 /// SNORD25 /// SNORD26 /// SNORD27 /// SNORD28 /// SNORD29 /// SNORD31 / Fold change (Aza/veh), C12orf56 (ProbeSet 11735607_a_at) / Fold change (ACY-1035/veh), C12orf56 (ProbeSet 11735607_a_at) / Fold change (Aza/veh), FGFR1OP (ProbeSet 11751329_s_at) / Fold change (ACY-1035/veh), FGFR1OP (ProbeSet 11751329_s_at) / Fold change (Aza/veh), VPS36 (ProbeSet 11739960_a_at) / Fold change (ACY-1035/veh), VPS36 (ProbeSet 11739960_a_at) / RFU SYPL1 (11715823_x_at) / Fold change /veh SYPL1 (11715823_x_at) / RFU IGFBP7 (11715501_s_at) / Fold change /veh IGFBP7 (11715501_s_at) / RFU REEP3 (11722064_at) / Fold change /veh REEP3 (11722064_at) / RFU IGLL1 (11728026_x_at) / Fold change /veh IGLL1 (11728026_x_at): dose or concentration left out as unconfirmed",
  "conditions": "MV-4-11 cells, 48 hours",
  "data": [
    {"smiles": "Nc1ccc(-c2cccs2)cc1NC(=O)c1ccc2c(c1)cc(C1CC1)n2CCN1CCOCC1", "note": "[ACY-1035]", "values": [
      {"measurement": "Fold change /veh SNX32 (11753110_a_at)", "value": 1.17}
    ]}
  ]
}
